US5565460A, “Therapeutic purine agents for parkinson's disease” (Kyowa Hakko Koygo Co., Ltd., priority 1993, dated 1996)

How the values were obtained:
[1] = test system: rats with a 6-hydroxydopamine-induced unilateral lesion of the nigrostriatal dopamine pathway; test: Augmentation of the contralateral rotation in rats with a 6-hydroxydopamine-induced unilateral lesion of the nigrostriatal dopamine pathway; type: in vivo, male Sprague-Dawley rats; settings: 150 minutes
Excerpt: When a unilateral lesion of the nigrostriatal pathway is induced by 6-hydroxydopamine in rodents, the sensitivity of dopamine receptors in the denervated striatum is enhanced. Administration of a dopamine […] to the rodents in such a condition induces a rotational behavior to the side contralateral to the lesioned side [Acta Physiol. Scand., 367, 69 (1971)]. This model has been used for a long time as a model for the study of Parkinson's disease and in the screening of drugs for this disease [Neurol. Neurobiol.; 33, 1 (1987)].
Male Sprague-Dawley rats (weighing 200 to 240 g, Japan SLC) were pretreated with desipramine hydrochloride (25 mg/kg, i.p., Sigma Co.) 30 minutes before surgery to protect noradrenergic neurons. Then, the animals were: anesthetized with sodium pentobarbital (30 mg/kg, i.p., Dainippon Pharm. Co., Ltd.) and the nigrostriatal pathway was lesioned by injection of 6-hydroxydopamine hydrobromide (8 μg, Sigma Co.) into the left medial forebrain bundle. 6-Hydroxydopamine hydrobromide was dissolved in physiological saline containing 0.05% L-ascorbic acid (Wako Pure Chem. Industries, Ltd.) to make 2 μl. of solution and injected over 3 minutes.
More than 10 days after surgery, each rat was placed in a plastic bowl (30 cm in diameter). […] The number of rotations was counted with an automated rotometer, in which each 180° turn was counted as a rotation. […]

[2] = test system: Parkinson's disease model in mice (MPTP); test: Effect on locomotor activity in Parkinson's disease model in mice (MPTP-treated mice); type: in vivo, male C57BL/6 mice; settings: 30 minutes measurement
Method: 1-Methyl-4-phenyl-1,2,3,6-tetrahydropyridine (MPTP) causes symptoms of Parkinson's disease in humans Science, 219, 979 (1983)]. It is reported that an experimental Parkinson's disease model was obtained by administering MPTP to mice [Science, 224, 1451 (1984)]. If a compound is effective on the experimental Parkinson's disease model in mouse, the compound can be expected to have a therapeutic effect on Parkinson's disease.
The experiment was performed by using several groups of 7-weeks-old male C57BL/6 mice (weighing 20 to 24 g, Japan SLC), each group consisting of 8 mice. MPTP (RBI Co., Ltd. ) dissolved in a physiological saline solution (Otsuka Pharmaceutical Co., Ltd. ) was intraperitoneally administered to each mouse once a day for five consecutive days at a dose of 30 mg/kg. Test compounds were suspended in injectable distilled water (Otsuka Pharmaceutical Co., Ltd.) containing Tween 80 [polyoxyethylene (20) sorbitan monooleate]. […] The amount of active movements of each mouse was measured by using Automex-II (Columbus Instruments International Corp.) for the period of 30 minutes starting 30 minutes after the administration of the test compound. The effect of the compounds was evaluated by comparing the average counts of the active movements of the test compound-administered groups with those of the control groups. […]

[3] = test system: Haloperidol-induced catalepsy in mice; test: Effect on haloperidol-induced catalepsy; type: in vivo, male ddY mice; settings: 10 mg/kg, oral; for Number of the Animals Showing Remission: five mice, catalepsy score not more than 4; for Remission Rate: rate of decrease in total score based on control group; for Total Score (catalepsy): total of five mice, 25 points at the full (control 25), not more than 20 effective
Method: The experiment was performed by using several groups of 5-weeks-old male ddY mice (weighing 22.to 24 g, Japan SLC), each group consisting of 5 mice. Haloperidol (Janssen Pharmaceutical) suspended in 0.3% CMC was intraperitoneally administered to each mouse at a dose of 1.0 mg/kg. Test compounds were suspended in 0.3% CMC or in injectable distilled water (Otsuka Pharmaceutical Co., Ltd.) containing Tween 80. L-DOPA (Kyowa Hakko Kogyo Co., Ltd.) and benserazide hydrochloride (Kyowa Hakko Kogyo Co., Ltd.) were suspended in 0.3% CMC. One hour after the haloperidol administration, the test compound suspensions and the control suspension [injectable distilled water (Otsuka Pharmaceutical Co., Ltd.) containing Tween 80] containing no test compound were orally administered to separate groups of the mice (0.1 ml per 10 g of body weight). One hour after the administration of the test compound, the forelimbs of each mouse and subsequently the hindlimbs of the same mouse were placed on a 4.5 cm-high, 1.0 cm-wide bar and catalepsy was estimated. […] The catalepsy score and the standard of judgment are shown. below.
0: forelimbs less than 5 seconds
hindlimbs less than 5 seconds
2: forelimbs 10 seconds or more
hindlimbs 5 seconds or more
hindlimbs 10 seconds or more
5: forelimbs 10 seconds or more
The effect of the compounds was evaluated by the total of the catalepsy scores of five mice in each group (25 points at the full). The groups wherein the total score was not more than 20 point is were estimated to be effective. The number of the animals showing remission against catalepsy is the number of the mice for which the catalepsy score was not more than 4 points.
The ED50 values were calculated by Probit analysis.

rid-strain male mice = test: Acute toxicity test; type: in vivo; settings: oral, seven days after administration
Method: Test compounds were orally administered to groups of rid-strain male mice weighing 20±1 g, each group consisting of three mice. Seven days after the administration, minimum lethal dose (MLD) of each compound was determined by observing the mortality.

[4] = test system: Haloperidol-induced catalepsy in mice; test: Effect on haloperidol-induced catalepsy; type: in vivo, male ddY mice; settings: Mus musculus; ten mice at each dose; effective = catalepsy score 3 or less; Probit analysis; read-out: ED50 (50% effective dose)

Row | SMILES | total rotation counts (average count ± S.E.M.), apomorphine ([1]; apomorphine 0.1 mg/kg, s.c. without test compound) [count] | Amount of Active Movements (average count ± S.E.M) ([2]; 10 mg/kg, oral, MPTP group 41 ± 14.3, normal control 1984 ± 122.3) [count] | Number of the Animals Showing Remission [3] | Remission Rate [3] [%] | Total Score (catalepsy) [3] | total rotation counts (average count ± S.E.M.), test compound + apomorphine ([1]; 10 mg/kg oral 30 minutes before apomorphine 0.1 mg/kg, s.c., p<0.05) [count] | minimum lethal dose (MLD) (rid-strain male mice) | ED50 [4] [mg/kg] | Amount of Active Movements (average count ± S.E.M) ([2]; L-DOPA 300 mg/kg, MPTP group 207 ± 85.5, normal control 1875 ± 77.7, no significant difference vs MPTP-treated group) [count]
1 | CN1CCc2cccc3c2[C@H]1Cc1ccc(O)c(O)c1-3 [apomorphine, reference compound] | 706 ± 59 | – | – | – | – | – | – | – | –
2 | Nc1nc(Oc2ccccc2)nc2nc(-c3ccco3)nn12 [Compound 1, 7-Amino-2(2-furyl) -5-phenoxy [1,2,4]triazolo[1,5-a]-1,3,5-triazine] | – | 785 ± 87.3 | 5 | 80 | 5 | 1011 ± 139 | greater than 300 mg/kg | 1.3 | –
3 | Nc1nc2ccc(Cl)cc2c2nc(-c3ccco3)nn12 [Compound 3, 5-Amino-9-chloro-2-(2-furyl) -1,2,4-triazolo-[1,5-c]quinazoline] | – | – | 4 | 48 | 13 | – | – | – | –
4 | N[C@@H](Cc1ccc(O)c(O)c1)C(=O)O [L-DOPA, reference compound] | – | – | – | – | – | – | – | – | 561 ± 271.01
5 | Nc1nc(Oc2ccccc2)nc2cc(-c3ccco3)nn12 [Compound 2, 7-Amino-2-(2-furyl) -5-phenoxypyrazolo [2,3-a]-1,3,5-triazine] | – | – | 4 | 32 | 17 | – | greater than 300 mg/kg | – | –
6 | Nc1nc2nn(Cc3ccc(F)cc3)cc2c2nc(-c3ccco3)nn12 [Compound 4, 5-Amino-8-(4-fluorobenzyl) -2-(2-furyl)pyrazolo-[4,3-e]-1,2,4-triazolo [1,5-c]pyrimidine] | – | – | 3 | 52 | 12 | – | – | – | –
